The test system of one assay is M. ab_ATCC. The experiment in a line: MIC against Mycobacterium abscessus (M. ab_ATCC, MHII), procedure of Franz 2017. In kind it is cell-based. Conditions: Mycobacteroides abscessus, Mycobacterium abscessus ATCC. The text has this:
The procedure described in Franz 2017 was used to generate the data shown in column 2 of Table 1.

The next assay has as its system M. tb H37Rv. Briefly: MIC determination against M. tb H37Rv (MIC-MABA). In kind it is cell-based, Mycobacterium tuberculosis. As to conditions: Mycobacterium tuberculosis, H37RV, 240 h, read-out: M. tb H37Rv: MIC-MABA, M. tb H37Rv; 7H9 broth; 10 days exposure; MIC = lowest concentration inhibiting fluorescence by 90%.

The structures appear in SMILES notation. Converted amounts (≈) assume the structure as drawn. Some results are limits rather than exact numbers.

For the molecule `COCc1nc2[nH]c(C(=O)NC3CC[Si]4(CCCCC4)CC3)cc2s1` [MPL-429, 2-(methoxymethyl)-N-(6-silaspiro[5.5]undecan-3-yl)-4H-pyrrolo[2,3-d]thiazole-5-carboxamide], the minimum inhibitory concentration (MIC) with M. ab_ATCC amounted to 64 µg/mL (≈ 169 µM); in the assay on M. tb H37Rv, 0.058 µg/mL (≈ 0.154 µM).

For the molecule `Cc1c(C(=O)NC2CC[Si]3(CCCCC3)CC2)[nH]c2nc(-c3ccccc3)sc12` [MPL-431, 6-methyl-2-phenyl-N-(6-silaspiro[5.5]undecan-3-yl)-4H-pyrrolo[2,3-d]thiazole-5-carboxamide], the MIC with M. ab_ATCC was above 64 µg/mL; in the assay on M. tb H37Rv, 0.021 µg/mL (≈ 0.0496 µM).

For `COc1nc2[nH]c(C(=O)NC3CCC(C)(C)CC3)cc2s1` [MPL-456, N-(4,4-dimethylcyclohexyl)-2-methoxy-4H-pyrrolo[2,3-d]thiazole-5-carboxamide], the MIC in the assay with M. ab_ATCC is 1 µg/mL (≈ 3.25 µM); with M. tb H37Rv it was 0.317 µg/mL (≈ 1.03 µM).

In the case of `O=C(NC1CC[Si]2(CCCC2)CC1)c1cc2sc(OC3CC3)nc2[nH]1` [MPL-458, 2-(cyclopropoxy)-N-(5-silaspiro[4.5]decan-8-yl)-4H-pyrrolo[2,3-d]thiazole-5-carboxamide], the MIC was above 64 µg/mL in the assay on M. ab_ATCC and 0.124 µg/mL (≈ 0.33 µM) in the assay with M. tb H37Rv.

Turning to `O=C(NC1CC[Si]2(CCCC2)CC1)c1cc2sc(OC3CCC3)nc2[nH]1` [MPL-459, 2-(cyclobutoxy)-N-(5-silaspiro[4.5]decan-8-yl)-4H-pyrrolo[2,3-d]thiazole-5-carboxamide], the MIC against M. ab_ATCC is above 64 µg/mL; in the assay with M. tb H37Rv it was 0.0593 µg/mL (≈ 0.152 µM).

In the case of `C[Si]1(C)CCCC(NC(=O)c2cc3sc(OC4CC4)nc3[nH]2)CC1` (stereo not drawn) [MPL-472, 2-(cyclopropoxy)-N-(1,1-dimethylsilepan-4-yl)-4H-pyrrolo[2,3-d]thiazole-5-carboxamide], the MIC was above 64 µg/mL against M. ab_ATCC and 0.06 µg/mL (≈ 0.165 µM) with M. tb H37Rv.

As to `C[Si]1(C)CCC(NC(=O)c2cc3sc(C4CCCC4)nc3[nH]2)CC1` [MPL-474, 2-cyclopentyl-N-(1,1-dimethylsilinan-4-yl)-4H-pyrrolo[2,3-d] thiazole-5-carboxamide], the MIC with M. ab_ATCC was above 64 µg/mL; in the assay on M. tb H37Rv, 0.061 µg/mL (≈ 0.169 µM).

For the molecule `C[Si]1(C)CCCC(NC(=O)c2cc3sc(OC4CCC4)nc3[nH]2)CC1` (stereo not drawn) [MPL-475, 2-(cyclobutoxy)-N-(1,1-dimethylsilepan-4-yl)-4H-pyrrolo[2,3-d]thiazole-5-carboxamide], the MIC against M. ab_ATCC came out at 16 µg/mL (≈ 42.4 µM); with M. tb H37Rv, 0.046 µg/mL (≈ 0.122 µM).

For the molecule `C[Si]1(C)CCCC(NC(=O)c2cc3sc(OC4CCCC4)nc3[nH]2)CC1` (stereo not drawn) [MPL-478, 2-(cyclopentoxy)-N-(1,1-dimethylsilepan-4-yl)-4H-pyrrolo[2,3-d]thiazole-5-carboxamide], the results for the minimal inhibitory concentration (MIC) in the assay on M. ab_ATCC and with M. tb H37Rv were above 64 µg/mL and 0.02 µg/mL (≈ 0.0511 µM), respectively.

In general, MIC refers to the smallest concentration in the dilution series that meets the test's criterion for growth inhibition.

Values taken from patent US20220396586A1, “THIAZOLE CARBOXAMIDE COMPOUNDS AND USE THEREOF FOR THE TREATMENT OF MYCOBACTERIAL INFECTIONS” (THE GLOBAL ALLIANCE FOR TB DRUG DEVELOPMENT, INC., priority 2019, published 2022).
